Reference: the CheMixHub ionic liquid set

Test: xn = mol fraction of the nth substance listed
Settings: for electrical conductivity: 293.2 K

CC[N+](CC)=C(N(C)C)N(C)C.O=S(=O)([N-]S(=O)(=O)C(F)(F)F)C(F)(F)F + CCO
viscosity [mPa·s], 101 kPa
Settings	293.15 K	298.15 K	303.15 K	308.15 K	313.15 K	318.15 K	323.15 K
x1 = 0.0004697	1.188	1.083	0.985	0.895	0.825	0.758	0.701
x1 = 0.0008976	1.203	1.096	0.996	0.905	0.834	0.766	0.708
x1 = 0.002294	1.228	1.119	1.016	0.922	0.849	0.78	0.72
x1 = 0.004714	1.266	1.146	1.04	0.945	0.871	0.8	0.738
x1 = 0.009053	1.318	1.197	1.088	0.987	0.909	0.835	0.772
x1 = 0.018	1.438	1.304	1.185	1.075	0.989	0.909	0.839
x1 = 0.02647	1.561	1.414	1.282	1.162	1.069	0.981	0.904
x1 = 0.03521	1.7	1.537	1.394	1.263	1.156	1.061	0.98
x1 = 0.04396	1.85	1.66	1.502	1.363	1.253	1.149	1.06
x1 = 0.05173	1.99	1.79	1.612	1.459	1.327	1.218	1.121
x1 = 0.06055	2.15	1.92	1.73	1.564	1.419	1.304	1.199
x1 = 0.07263	2.38	2.12	1.91	1.72	1.557	1.423	1.306
x1 = 0.08417	2.61	2.32	2.08	1.87	1.69	1.542	1.412
x1 = 0.1028	2.97	2.65	2.37	2.13	1.92	1.75	1.592
x1 = 0.1216	3.38	3.01	2.69	2.42	2.18	1.96	1.77

101 kPa
Settings	electrical conductivity [S/m]
x1 = 0.0004697	0.0209
x1 = 0.0008976	0.0341
x1 = 0.002294	0.0657
x1 = 0.004714	0.109
x1 = 0.009053	0.167
x1 = 0.018	0.278
x1 = 0.02647	0.393
x1 = 0.03521	0.477
x1 = 0.04396	0.552
x1 = 0.05173	0.591
x1 = 0.06055	0.661
x1 = 0.07263	0.716
x1 = 0.08417	0.756
x1 = 0.1028	0.848
x1 = 0.1216	0.904

CCC(C)O (stereo not given) + CCOS(=O)(=O)[O-].CC[n+]1ccn(C)c1
Settings	viscosity [mPa·s]
308.15 K, 101 kPa, x2 = 0	2

O=C([O-])c1ccccc1.[Na+] + CCOS(=O)(=O)[O-].CC[n+]1ccn(C)c1 + O
viscosity [mPa·s], 101.3 kPa
Settings	293.15 K	298.15 K	303.15 K	308.15 K	313.15 K
x1 = 0.0001784, x2 = 0	1.009	0.897	0.803	0.727	0.651
x1 = 0.0001804, x2 = 0.001795	1.079	0.966	0.851	0.757	0.685
x1 = 0.0001842, x2 = 0.002697	1.114	0.994	0.883	0.795	0.716
x1 = 0.0001899, x2 = 0.003589	1.144	1.024	0.907	0.819	0.735
x1 = 0.0005403, x2 = 0	1.014	0.903	0.809	0.733	0.657
x1 = 0.0005539, x2 = 0.001794	1.086	0.973	0.858	0.764	0.692
x1 = 0.0005579, x2 = 0.002696	1.121	1.001	0.89	0.802	0.723
x1 = 0.0005619, x2 = 0.003587	1.151	1.032	0.915	0.827	0.743
x1 = 0.0009002, x2 = 0	1.019	0.908	0.814	0.738	0.662
x1 = 0.0009234, x2 = 0.001794	1.092	0.979	0.864	0.77	0.698
x1 = 0.0009314, x2 = 0.002695	1.128	1.008	0.897	0.809	0.73
x1 = 0.0009412, x2 = 0.003586	1.158	1.039	0.922	0.834	0.75
x1 = 0.001258, x2 = 0	1.024	0.913	0.819	0.743	0.667
x1 = 0.001287, x2 = 0.001793	1.098	0.984	0.869	0.776	0.703
x1 = 0.001299, x2 = 0.002694	1.134	1.014	0.903	0.815	0.737
x1 = 0.001311, x2 = 0.003585	1.165	1.047	0.929	0.841	0.757
x1 = 0.001619, x2 = 0	1.029	0.918	0.824	0.748	0.672
x1 = 0.001651, x2 = 0.001792	1.103	0.99	0.875	0.781	0.709
x1 = 0.001674, x2 = 0.002693	1.14	1.02	0.91	0.821	0.742
x1 = 0.001689, x2 = 0.003583	1.172	1.053	0.936	0.848	0.764
x1 = 0.001978, x2 = 0	1.034	0.923	0.829	0.753	0.677
x1 = 0.002025, x2 = 0.001792	1.108	0.997	0.881	0.786	0.715
x1 = 0.002045, x2 = 0.002692	1.146	1.027	0.915	0.827	0.748
x1 = 0.002068, x2 = 0.003582	1.178	1.059	0.943	0.854	0.77

CCC(C)O (stereo not given) + CC[n+]1ccn(C)c1.N#C[N-]C#N
100 kPa, x2 = 0
Settings	viscosity [mPa·s]
298.15 K	3.01
303.15 K	2.55
308.15 K	2.21
313.15 K	1.97
318.15 K	1.79
323.15 K	1.63

CCC(C)O (stereo not given) + CC[n+]1ccn(C)c1.O=S(=O)([O-])C(F)(F)F
Settings	viscosity [mPa·s]
308.15 K, 101 kPa, x2 = 0	2

O=C([O-])CC(O)(CC(=O)[O-])C(=O)[O-].[Li+].[Li+].[Li+] + CC[n+]1ccn(C)c1.O=S(=O)([O-])O + O
viscosity [mPa·s], 101 kPa
Settings	293.15 K	298.15 K	303.15 K	308.15 K	313.15 K
x1 = 0.0003639, x2 = 0	1.022	0.927	0.835	0.757	0.691
x1 = 0.0007293, x2 = 0	1.043	0.946	0.854	0.776	0.712
x1 = 0.0008074, x2 = 0.0007287	1.082	1.003	0.885	0.81	0.751
x1 = 0.0008123, x2 = 0.000664	1.069	0.99	0.883	0.811	0.734
x1 = 0.0008236, x2 = 0.0009246	1.112	1.003	0.906	0.825	0.745
x1 = 0.0009579, x2 = 0.0007286	1.09	1.01	0.892	0.817	0.758
x1 = 0.000959, x2 = 0.0006639	1.077	0.996	0.89	0.818	0.741
x1 = 0.001091, x2 = 0	1.063	0.961	0.869	0.793	0.729
x1 = 0.001134, x2 = 0.0009243	1.13	1.017	0.92	0.84	0.761
x1 = 0.001339, x2 = 0.0009241	1.142	1.025	0.929	0.849	0.771
x1 = 0.001445, x2 = 0	1.083	0.974	0.883	0.807	0.745
x1 = 0.001498, x2 = 0.0007282	1.121	1.032	0.914	0.841	0.784
x1 = 0.001582, x2 = 0.0006634	1.113	1.021	0.915	0.845	0.769
x1 = 0.001715, x2 = 0.000728	1.134	1.04	0.923	0.85	0.794
x1 = 0.001743, x2 = 0.0006633	1.122	1.026	0.922	0.852	0.776
x1 = 0.001787, x2 = 0.0009237	1.169	1.042	0.947	0.869	0.791
x1 = 0.001793, x2 = 0	1.102	0.986	0.896	0.821	0.759
x1 = 0.002226, x2 = 0	1.126	1	0.911	0.837	0.777
x1 = 0.002241, x2 = 0.000663	1.15	1.044	0.94	0.871	0.797
x1 = 0.002241, x2 = 0.0007276	1.164	1.059	0.942	0.871	0.817
x1 = 0.002293, x2 = 0.0009233	1.198	1.061	0.967	0.89	0.814
x1 = 0.002592, x2 = 0.0006628	1.17	1.055	0.952	0.884	0.811
x1 = 0.002633, x2 = 0.0007274	1.186	1.073	0.956	0.886	0.833
x1 = 0.002689, x2 = 0.0009229	1.221	1.074	0.981	0.906	0.831
x1 = 0.002748, x2 = 0	1.155	1.016	0.928	0.855	0.797

O=C([O-])CC(O)(CC(=O)[O-])C(=O)[O-].[NH4+].[NH4+].[NH4+] + CC[n+]1ccn(C)c1.O=S(=O)([O-])O + O
viscosity [mPa·s], 101 kPa
Settings	x1 = 0.0003657, x2 = 0	x1 = 0.0007347, x2 = 0	x1 = 0.001087, x2 = 0	x1 = 0.001443, x2 = 0	x1 = 0.00179, x2 = 0	x1 = 0.002235, x2 = 0	x1 = 0.00271, x2 = 0
293.15 K	1.022	1.043	1.063	1.083	1.102	1.127	1.153
298.15 K	0.923	0.939	0.953	0.965	0.976	0.989	1.002
303.15 K	0.829	0.846	0.859	0.872	0.883	0.897	0.911
308.15 K	0.75	0.768	0.782	0.795	0.807	0.822	0.837
313.15 K	0.684	0.702	0.717	0.731	0.744	0.76	0.776

c1c[nH]cn1 + CC[n+]1ccn(C)c1.[Cl-]
298.2 K, 100 kPa
Settings	viscosity [mPa·s]
x2 = 0.25	38.7
x2 = 0.5	82.5

CCCCCC[n+]1ccn(C)c1.[Cl-] + CN1CCCC1=O
100 kPa
Settings	viscosity [mPa·s]
293.15 K, x2 = 0.4223	288
298.15 K, x2 = 0.2211	1042
298.15 K, x2 = 0.3181	467
298.15 K, x2 = 0.5271	92.7
298.15 K, x2 = 0.718	19.13
298.15 K, x2 = 0.8139	8.49
303.15 K, x2 = 0.4223	152
308.15 K, x2 = 0.2211	481
308.15 K, x2 = 0.718	13.69
308.15 K, x2 = 0.8139	6.46
313.15 K, x2 = 0.6327	21.54
313.15 K, x2 = 0.718	11.59
313.15 K, x2 = 0.9083	2.78
323.15 K, x2 = 0.3181	102.2
323.15 K, x2 = 0.4223	54.5
328.15 K, x2 = 0.4223	44.4
328.15 K, x2 = 0.718	7.66
333.15 K, x2 = 0.9083	2.041

CCCCCC[n+]1ccn(C)c1.[Cl-] + CN(C)C=O
101 kPa
Settings	viscosity [mPa·s]
288.15 K, x2 = 0.2751	230
308.15 K, x2 = 0.6856	9.1
